These results are taken from patent US9302998B2, “Aryl triazole compounds with antitumoural activity” (SIGMA-TAU RESEARCH SWITZERLAND S.A., priority 2010, dated 2016).

In one assay the target is T1, Hsp90 (Homo sapiens, UniProt P07900).
T1 construct: purchased Stressgen SPP-776
Nature of the assay: Fluorescence Polarization (FP) binding, GM-BODIPY displacement from Hsp90. Particulars: GM-BODIPY tracer, 4° C. for 4 hours. A digest of the protocol: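 Hsp90 (125 nM) was mixed with 100 nM GM-BODIPY tracer and serially diluted compounds in HEPES-K buffer (pH 7.3, KCl, MgCl2, Na2MoO4, 0.01% NP40, fresh bovine gamma globulin and 2 mM DTT). Plates were shaken 4 h at 4 °C before FP (mP) reading. IC50 is the concentration displacing 50% of tracer, from nonlinear least-squares fits of triplicate means.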

Assay [1] has as its system NCI-H460 non-small cell lung carcinoma. Briefly: Cytotoxicity assay, sulphorodamine B test, NCI-H460. Conditions: Homo sapiens, NCI-H460; 72 h, sulphorodamine B. It is filed as cell-based. The gist of the method: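 NCI-H460 cells grown in RPMI 1640 with 10% FBS, seeded at ~10% confluence and left 24 h before graded compound concentrations were added for 72 h at 37 °C. TCA-fixed cells stained with 0.4% sulphorodamine B; OD 540 nm vs control cultures gave IC50 for 50% inhibition of survival.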

A further assay deals with A431 epidermoid. Nature of the assay: Sulphorodamine B test at single concentration, A431. It counts as cell-based. Particulars: Homo sapiens, A-431; 500 nM, 72 h. A digest of the protocol:
(§1)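 Cells in RPMI 1640 with 10% FBS, seeded at about 10% confluence and allowed 24 h recovery, then treated with a single 500 nM concentration for 72 h at 37° C., in octuplicate. TCA-fixed cells were stained with sulphorodamine B, OD read at 540 nm; cell kill was derived as % decrease in staining versus controls. NB4 suspension cells were centrifuged after incubation.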

In another assay the test system is A2780 ovarian. Nature of the assay: Sulphorodamine B test at single concentration, A2780. It counts as cell-based. Conditions: Homo sapiens, 500 nM, 72 h. The gist of the method:
as §1

For assay [2], the system named is MDA-MB436 triple-negative breast. Briefly: Sulphorodamine B test at single concentration, MDA-MB436. It is filed as cell-based. Particulars: Homo sapiens, MDA-MB-436; 500 nM, 72 h. A digest of the protocol: as §1
In a further assay the test system is U87MG glioblastoma. Nature of the assay: Sulphorodamine B test at single concentration, U87MG. It is filed as cell-based. Particulars: Homo sapiens, U-87 MG; 500 nM, 72 h. The gist of the method:
(§2)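 Cells in EMEM with 10% FBS, seeded at ~10% confluence, attached 24 h, then exposed to 500 nM compound for 72 h at 37 °C, octuplicate. TCA fixation, sulphorodamine B staining, OD at 540 nm; killing expressed as % decrease in dye binding versus control cultures.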

A further assay has as its system A498 renal. Nature of the assay: Sulphorodamine B test at single concentration, A498. It counts as cell-based. Conditions: Homo sapiens, 500 nM, 72 h. The gist of the method: as §1
The next assay deals with HCT116 colon. Briefly: Sulphorodamine B test at single concentration, HCT116. It is filed as cell-based. Conditions: Homo sapiens, HCT-116; 500 nM, 72 h. The gist of the method: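 HCT116 colon cells in McCoy's medium with 10% FBS were seeded at ~10% confluence, left 24 h, then exposed to a single 500 nM inhibitor concentration for 72 h at 37°C, in octuplicate. TCA-fixed cells stained with sulphorhodamine B, OD at 540 nm; percent decrease versus control cultures.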

A further assay deals with MeWo melanoma. Briefly: Sulphorodamine B test at single concentration, MeWo. It is filed as cell-based. Particulars: Homo sapiens, 500 nM, 72 h. A digest of the protocol:
as §2

For the next assay, the system named is MiaPaCa2 pancreas. Nature of the assay: Sulphorodamine B test at single concentration, MiaPaCa2. It is filed as cell-based. Conditions: Homo sapiens, MIA PaCa-2; 500 nM, 72 h. The gist of the method: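 MiaPaCa2 cells in DMEM with 10% FBS were attached for 24 h, then exposed to a single 500 nM inhibitor concentration for 72 h at 37° C, in octuplicate. Following TCA fixation, sulphorodamine B staining was read as OD at 540 nm; cell kill was the percent decrease in dye binding versus control cultures.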

The next assay relates to HeLa cervix uteri. Nature of the assay: Sulphorodamine B test at single concentration, HeLa. It is filed as cell-based. Conditions: Homo sapiens, 500 nM, 72 h. The gist of the method:
as §1

The test system of assay [3] is NB4 promyelocytic leukemia. Nature of the assay: Sulphorodamine B test at single concentration, NB4. It counts as cell-based. Particulars: 500 nM, 72 h, suspension cells. A digest of the protocol: as §1

Turning to `CCNC(=O)c1nnn(-c2cc(C(C)C)c(O)cc2O)c1-c1ccc(CN2CCCCC2)cc1` [Example 9, 1-(2,4-dihydroxy-5-isopropyl-phenyl)-5-(4-piperidin-1-ylmethyl-phenyl)-1H-[1,2,3]triazole-4-carboxylic acid ethylamide], the IC50 (on Hsp90; in [1]) was under 50 nM throughout. Also, the inhibition at 0.5 µM (in the assay on A431 epidermoid; with A2780 ovarian; in assay [2]; with U87MG glioblastoma; in the assay with A498 renal; with HCT116 colon) was at least 50% each time. The inhibition at 0.5 µM (with MeWo melanoma; in the assay with MiaPaCa2 pancreas; in the assay on HeLa cervix uteri; in [3]) was at least 50% in each case.
On to `CCCCCCNC(=O)c1nnn(-c2cc(C(C)C)c(O)cc2O)c1-c1ccc(CN2CCOCC2)cc1` [Example 27, 1-(2,4-dihydroxy-5-isopropyl-phenyl)-5-(4-morpholin-4-ylmethyl-phenyl)-1H-[1,2,3]triazole-4-carboxylic acid hexylamide], for which the IC50 (on Hsp90; in assay [1]) was under 50 nM throughout. Besides, the inhibition at 0.5 µM (with A431 epidermoid; in the assay with A2780 ovarian; in assay [2]; in the assay on U87MG glioblastoma; with A498 renal; in the assay with HCT116 colon) was at least 50% in each case. The inhibition at 0.5 µM (in the assay on MeWo melanoma; in the assay with MiaPaCa2 pancreas; in the assay with HeLa cervix uteri; in assay [3]) was at least 50% each time.
Take `CCNC(=O)c1nnn(-c2cc(C(C)C)c(O)cc2O)c1-c1ccc(CNCCN(CC)CC)cc1` [Example 17, 5-{4-[(2-diethylamino-ethylamino)-methyl]-phenyl}-1-(2,4-dihydroxy-5-isopropyl-phenyl)-1H-[1,2,3]triazole-4-carboxylic acid ethylamide]: the IC50 (usually the concentration that inhibits the measured activity by half) at Hsp90 is under 50 nM; in assay [1], 100 to 500 nM. The inhibition – broadly, how much of the control response was suppressed – at 0.5 µM in the assay on A431 epidermoid is at least 50%; with A2780 ovarian it was at least 50%; in [2] it was at least 50%; in the assay on U87MG glioblastoma, at least 50%; in the assay with A498 renal, 30 to 50%; with HCT116 colon, 30 to 50%. In addition, the inhibition at 0.5 µM in the assay on MeWo melanoma was at least 50%; in the assay on MiaPaCa2 pancreas, at least 50%; with HeLa cervix uteri, 30 to 50%; in assay [3], at least 50%.
For the compound `CCNC(=O)c1nnn(-c2cc(C(C)C)c(O)cc2O)c1-c1ccc(CN2CCCCC2CCO)cc1` (stereo not drawn) [Example 8, 1-(2,4-dihydroxy-5-isopropyl-phenyl)-5-{4-[2-(2-hydroxy-ethyl)-piperidin-1-ylmethyl]-phenyl}-1H-[1,2,3]triazole-4-carboxylic acid ethylamide], the IC50 on Hsp90 is under 50 nM; in [1], 100 to 500 nM. Moreover, the inhibition at 0.5 µM with A431 epidermoid was at least 50%; in the assay on A2780 ovarian, at least 50%; in assay [2], at least 50%; in the assay with U87MG glioblastoma, at least 50%; in the assay on A498 renal, 30 to 50%; in the assay on HCT116 colon, at least 50%. The inhibition at 0.5 µM (in the assay with MeWo melanoma; with MiaPaCa2 pancreas; in the assay on HeLa cervix uteri; in assay [3]) was at least 50% in each case.
With `CCNC(=O)c1nnn(-c2cc(C(C)C)c(O)cc2O)c1-c1ccc(CN2CC[C@H](N(C)C)C2)cc1` [Example 20, 1-(2,4-dihydroxy-5-isopropyl-phenyl)-5-[4-((S)-3-dimethylamino-pyrrolidin-1-ylmethyl)-phenyl]-1H-[1,2,3]triazole-4-carboxylic acid ethylamide], the IC50 (at Hsp90; in [1]) was under 50 nM each time. Moreover, the inhibition at 0.5 µM in the assay with A431 epidermoid is at least 50%; in the assay on A2780 ovarian, at least 50%; in [2] it was at least 50%; with U87MG glioblastoma it was at least 50%; in the assay on A498 renal, 30 to 50%; in the assay on HCT116 colon, at least 50%. Moreover, the inhibition at 0.5 µM (in the assay with MeWo melanoma; in the assay with MiaPaCa2 pancreas; with HeLa cervix uteri; in [3]) was at least 50% throughout.
On to `CC(C)c1cc(-n2nncc2-c2ccc(CN3CCCC(O)C3)cc2)c(O)cc1O` (stereo not drawn) [Example 2, 4-{5-[4-(3-hydroxy-piperidin-1-ylmethyl)-phenyl]-[1,2,3]triazol-1-yl}-6-isopropyl-benzene-1,3-diol], for which the IC50 (on Hsp90; in assay [1]) was under 50 nM throughout. Besides, the inhibition at 0.5 µM was at least 50% in the assay with A431 epidermoid; at least 50% in the assay on A2780 ovarian; at least 50% in assay [2]; 30 to 50% in the assay on U87MG glioblastoma; 30 to 50% in the assay with A498 renal; at least 50% in the assay with HCT116 colon. Further, the inhibition at 0.5 µM (in the assay with MeWo melanoma; with MiaPaCa2 pancreas; with HeLa cervix uteri; in [3]) was at least 50% throughout.
